According to patent publication US8148541B2, “Rhodanine derivatives, a process for the preparation thereof and pharmaceutical composition containing the same” (Korea Research Institute of Bioscience and Biotechnology, priority 2006, dated 2012):
Like-named read-outs stand apart in the source and are kept apart here.

What was measured:
Test in all cases: Protein phosphatase inhibition assay, FDP substrate, FMP fluorescence
Type in all cases: biochemical
PP1 = details: genetically recombinant enzyme, fluorescence of FMP
Procedure: (§1) In order to examine the ability of the rhodanine derivatives, that is, Compounds 1˜174, to inhibit protein phosphatases, they were assayed for IC50 values through the following experiments.
(§2) For the experiments, FDP (fluorescein diphosphate) was used as a substrate for genetically recombinant enzymes to measure the fluorescence of FMP (fluorescein monophosphate). […]

PTP1B = biological target: T1, PTP1B (Homo sapiens, UniProt P18031)
T1 sequence (P18031 1-435): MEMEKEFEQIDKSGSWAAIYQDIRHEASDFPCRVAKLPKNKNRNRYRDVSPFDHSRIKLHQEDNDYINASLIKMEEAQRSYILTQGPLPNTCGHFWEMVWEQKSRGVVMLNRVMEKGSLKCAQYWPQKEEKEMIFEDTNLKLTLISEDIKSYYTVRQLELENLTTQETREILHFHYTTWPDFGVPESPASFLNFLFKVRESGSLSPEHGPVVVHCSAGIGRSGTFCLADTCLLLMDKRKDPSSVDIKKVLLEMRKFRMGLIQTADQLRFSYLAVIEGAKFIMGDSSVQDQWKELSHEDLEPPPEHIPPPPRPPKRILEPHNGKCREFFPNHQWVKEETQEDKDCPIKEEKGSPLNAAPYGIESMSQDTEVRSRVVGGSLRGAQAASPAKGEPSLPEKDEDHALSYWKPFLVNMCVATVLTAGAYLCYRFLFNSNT
Procedure: as §1, §2

pp2A = details: genetically recombinant enzyme, fluorescence of FMP
Procedure: as §1, §2

Cdc25A = biological target: T2, Cdc25A (Homo sapiens, UniProt P30304); details: genetically recombinant enzyme, fluorescence of FMP
T2 sequence (P30304 1-524): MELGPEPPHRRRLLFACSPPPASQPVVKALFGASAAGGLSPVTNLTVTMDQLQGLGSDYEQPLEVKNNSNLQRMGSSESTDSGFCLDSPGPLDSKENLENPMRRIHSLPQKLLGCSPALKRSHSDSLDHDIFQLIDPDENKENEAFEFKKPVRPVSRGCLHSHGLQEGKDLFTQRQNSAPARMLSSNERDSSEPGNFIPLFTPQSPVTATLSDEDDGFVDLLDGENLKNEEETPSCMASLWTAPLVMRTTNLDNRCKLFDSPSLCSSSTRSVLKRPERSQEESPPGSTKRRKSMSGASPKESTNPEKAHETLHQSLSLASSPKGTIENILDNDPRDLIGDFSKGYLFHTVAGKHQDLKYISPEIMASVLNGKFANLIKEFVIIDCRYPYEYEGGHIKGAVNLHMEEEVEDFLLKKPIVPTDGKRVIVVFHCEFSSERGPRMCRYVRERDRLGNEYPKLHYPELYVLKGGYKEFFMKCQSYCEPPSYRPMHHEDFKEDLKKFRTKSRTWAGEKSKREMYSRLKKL
Procedure: as §1, §2

Cdc25B = biological target: T3, Cdc25B (Homo sapiens, UniProt P30305); details: genetically recombinant enzyme, fluorescence of FMP
T3 sequence (P30305 1-580): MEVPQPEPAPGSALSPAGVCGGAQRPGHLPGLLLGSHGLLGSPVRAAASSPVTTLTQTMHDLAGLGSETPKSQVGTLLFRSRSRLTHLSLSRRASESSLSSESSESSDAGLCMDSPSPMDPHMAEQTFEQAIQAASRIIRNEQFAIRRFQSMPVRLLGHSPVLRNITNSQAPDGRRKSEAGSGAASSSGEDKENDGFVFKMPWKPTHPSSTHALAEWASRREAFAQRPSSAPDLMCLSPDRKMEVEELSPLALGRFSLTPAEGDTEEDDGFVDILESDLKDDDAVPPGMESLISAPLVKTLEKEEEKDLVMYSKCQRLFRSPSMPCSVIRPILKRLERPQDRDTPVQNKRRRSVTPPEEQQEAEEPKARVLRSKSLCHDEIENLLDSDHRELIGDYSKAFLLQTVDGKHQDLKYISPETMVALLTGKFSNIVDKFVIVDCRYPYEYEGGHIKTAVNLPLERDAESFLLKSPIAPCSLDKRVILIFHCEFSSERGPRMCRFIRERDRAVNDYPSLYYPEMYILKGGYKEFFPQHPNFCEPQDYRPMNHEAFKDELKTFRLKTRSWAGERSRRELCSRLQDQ
Procedure: as §1, §2

Prl-3 = Prl-3 (Homo sapiens, UniProt O75365); details: genetically recombinant enzyme, fluorescence of FMP
Description: For the experiments, FDP (fluorescein diphosphate) was used as a substrate for genetically recombinant enzymes to measure the fluorescence of FMP (fluorescein monophosphate).

Cdc25C = biological target: T4, Cdc25C (Homo sapiens, UniProt P30307); details: genetically recombinant enzyme, fluorescence of FMP
T4 sequence (P30307 1-473): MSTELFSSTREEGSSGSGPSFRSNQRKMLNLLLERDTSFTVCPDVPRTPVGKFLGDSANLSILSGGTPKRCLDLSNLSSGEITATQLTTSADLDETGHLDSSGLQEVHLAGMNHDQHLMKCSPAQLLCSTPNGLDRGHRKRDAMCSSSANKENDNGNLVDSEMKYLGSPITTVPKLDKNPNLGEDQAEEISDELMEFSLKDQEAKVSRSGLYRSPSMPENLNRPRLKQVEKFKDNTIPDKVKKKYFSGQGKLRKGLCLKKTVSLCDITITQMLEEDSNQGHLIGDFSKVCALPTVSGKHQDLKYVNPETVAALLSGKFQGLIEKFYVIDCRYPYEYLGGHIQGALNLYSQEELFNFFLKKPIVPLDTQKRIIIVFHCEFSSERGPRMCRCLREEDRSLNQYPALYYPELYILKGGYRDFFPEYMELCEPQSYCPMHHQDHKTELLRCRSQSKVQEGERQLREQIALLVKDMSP
Procedure: as §1, §2

CD45 = biological target: T5, CD45 (Homo sapiens, UniProt P08575); details: genetically recombinant enzyme, fluorescence of FMP
T5 sequence (P08575 26-1306): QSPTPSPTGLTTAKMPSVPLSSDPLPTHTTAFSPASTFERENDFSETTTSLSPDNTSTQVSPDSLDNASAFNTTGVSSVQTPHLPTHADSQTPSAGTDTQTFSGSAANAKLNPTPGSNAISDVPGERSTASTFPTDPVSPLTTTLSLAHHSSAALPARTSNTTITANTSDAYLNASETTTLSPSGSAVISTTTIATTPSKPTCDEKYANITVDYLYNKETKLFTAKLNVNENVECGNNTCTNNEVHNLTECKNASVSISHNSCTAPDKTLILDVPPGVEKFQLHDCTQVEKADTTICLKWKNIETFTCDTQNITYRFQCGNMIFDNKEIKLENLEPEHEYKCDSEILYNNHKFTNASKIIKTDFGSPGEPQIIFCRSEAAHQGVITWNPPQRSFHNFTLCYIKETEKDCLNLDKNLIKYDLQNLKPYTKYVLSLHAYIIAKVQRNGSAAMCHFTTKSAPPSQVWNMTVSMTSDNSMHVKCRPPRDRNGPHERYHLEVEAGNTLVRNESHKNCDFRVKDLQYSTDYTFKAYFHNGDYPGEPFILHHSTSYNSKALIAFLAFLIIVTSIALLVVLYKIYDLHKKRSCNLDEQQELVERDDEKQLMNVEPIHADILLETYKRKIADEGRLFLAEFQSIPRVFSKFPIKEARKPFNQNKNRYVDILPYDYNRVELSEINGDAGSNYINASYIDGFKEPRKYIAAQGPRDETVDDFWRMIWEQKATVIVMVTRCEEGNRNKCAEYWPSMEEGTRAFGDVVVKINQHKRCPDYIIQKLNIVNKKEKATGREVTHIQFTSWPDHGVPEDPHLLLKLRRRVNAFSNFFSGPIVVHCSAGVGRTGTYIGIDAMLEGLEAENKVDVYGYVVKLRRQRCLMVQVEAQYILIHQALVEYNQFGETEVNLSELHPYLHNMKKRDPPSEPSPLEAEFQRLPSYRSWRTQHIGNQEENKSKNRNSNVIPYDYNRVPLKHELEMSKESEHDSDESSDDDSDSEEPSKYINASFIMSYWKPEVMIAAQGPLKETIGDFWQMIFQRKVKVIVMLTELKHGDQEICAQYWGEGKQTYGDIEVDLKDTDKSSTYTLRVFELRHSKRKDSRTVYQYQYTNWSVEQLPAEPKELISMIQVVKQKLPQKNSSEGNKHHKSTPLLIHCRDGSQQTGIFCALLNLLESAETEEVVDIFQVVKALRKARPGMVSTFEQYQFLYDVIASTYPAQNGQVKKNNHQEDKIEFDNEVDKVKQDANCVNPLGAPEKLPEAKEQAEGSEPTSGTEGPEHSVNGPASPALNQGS
Procedure: as §1, §2

LAR = LAR (Homo sapiens, UniProt P10586); details: genetically recombinant enzyme, fluorescence of FMP
Procedure: as §1, §2

Yop = Yop (Yersinia enterocolitica, UniProt P15273); details: genetically recombinant enzyme, fluorescence of FMP
Procedure: as §1, §2

VHR = VHR (Homo sapiens, UniProt P51452); details: genetically recombinant enzyme, fluorescence of FMP
Procedure: as §1, §2

[1] = genetically recombinant enzyme, FDP substrate, fluorescence of FMP, read-out: IC50 PTP1B

Prl-3, sequence (O75365 whole entry): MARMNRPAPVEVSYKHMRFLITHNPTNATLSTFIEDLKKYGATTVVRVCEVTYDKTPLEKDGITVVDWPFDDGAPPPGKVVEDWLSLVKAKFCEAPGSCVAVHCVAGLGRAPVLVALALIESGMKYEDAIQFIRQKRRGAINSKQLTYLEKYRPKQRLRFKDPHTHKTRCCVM
VHR, sequence (P51452 whole entry): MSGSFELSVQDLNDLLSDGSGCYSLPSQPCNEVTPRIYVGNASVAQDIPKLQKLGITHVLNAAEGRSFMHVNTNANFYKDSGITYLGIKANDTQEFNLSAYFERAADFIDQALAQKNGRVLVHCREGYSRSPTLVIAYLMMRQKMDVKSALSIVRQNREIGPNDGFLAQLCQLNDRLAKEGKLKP
LAR, sequence (P10586 30-1907): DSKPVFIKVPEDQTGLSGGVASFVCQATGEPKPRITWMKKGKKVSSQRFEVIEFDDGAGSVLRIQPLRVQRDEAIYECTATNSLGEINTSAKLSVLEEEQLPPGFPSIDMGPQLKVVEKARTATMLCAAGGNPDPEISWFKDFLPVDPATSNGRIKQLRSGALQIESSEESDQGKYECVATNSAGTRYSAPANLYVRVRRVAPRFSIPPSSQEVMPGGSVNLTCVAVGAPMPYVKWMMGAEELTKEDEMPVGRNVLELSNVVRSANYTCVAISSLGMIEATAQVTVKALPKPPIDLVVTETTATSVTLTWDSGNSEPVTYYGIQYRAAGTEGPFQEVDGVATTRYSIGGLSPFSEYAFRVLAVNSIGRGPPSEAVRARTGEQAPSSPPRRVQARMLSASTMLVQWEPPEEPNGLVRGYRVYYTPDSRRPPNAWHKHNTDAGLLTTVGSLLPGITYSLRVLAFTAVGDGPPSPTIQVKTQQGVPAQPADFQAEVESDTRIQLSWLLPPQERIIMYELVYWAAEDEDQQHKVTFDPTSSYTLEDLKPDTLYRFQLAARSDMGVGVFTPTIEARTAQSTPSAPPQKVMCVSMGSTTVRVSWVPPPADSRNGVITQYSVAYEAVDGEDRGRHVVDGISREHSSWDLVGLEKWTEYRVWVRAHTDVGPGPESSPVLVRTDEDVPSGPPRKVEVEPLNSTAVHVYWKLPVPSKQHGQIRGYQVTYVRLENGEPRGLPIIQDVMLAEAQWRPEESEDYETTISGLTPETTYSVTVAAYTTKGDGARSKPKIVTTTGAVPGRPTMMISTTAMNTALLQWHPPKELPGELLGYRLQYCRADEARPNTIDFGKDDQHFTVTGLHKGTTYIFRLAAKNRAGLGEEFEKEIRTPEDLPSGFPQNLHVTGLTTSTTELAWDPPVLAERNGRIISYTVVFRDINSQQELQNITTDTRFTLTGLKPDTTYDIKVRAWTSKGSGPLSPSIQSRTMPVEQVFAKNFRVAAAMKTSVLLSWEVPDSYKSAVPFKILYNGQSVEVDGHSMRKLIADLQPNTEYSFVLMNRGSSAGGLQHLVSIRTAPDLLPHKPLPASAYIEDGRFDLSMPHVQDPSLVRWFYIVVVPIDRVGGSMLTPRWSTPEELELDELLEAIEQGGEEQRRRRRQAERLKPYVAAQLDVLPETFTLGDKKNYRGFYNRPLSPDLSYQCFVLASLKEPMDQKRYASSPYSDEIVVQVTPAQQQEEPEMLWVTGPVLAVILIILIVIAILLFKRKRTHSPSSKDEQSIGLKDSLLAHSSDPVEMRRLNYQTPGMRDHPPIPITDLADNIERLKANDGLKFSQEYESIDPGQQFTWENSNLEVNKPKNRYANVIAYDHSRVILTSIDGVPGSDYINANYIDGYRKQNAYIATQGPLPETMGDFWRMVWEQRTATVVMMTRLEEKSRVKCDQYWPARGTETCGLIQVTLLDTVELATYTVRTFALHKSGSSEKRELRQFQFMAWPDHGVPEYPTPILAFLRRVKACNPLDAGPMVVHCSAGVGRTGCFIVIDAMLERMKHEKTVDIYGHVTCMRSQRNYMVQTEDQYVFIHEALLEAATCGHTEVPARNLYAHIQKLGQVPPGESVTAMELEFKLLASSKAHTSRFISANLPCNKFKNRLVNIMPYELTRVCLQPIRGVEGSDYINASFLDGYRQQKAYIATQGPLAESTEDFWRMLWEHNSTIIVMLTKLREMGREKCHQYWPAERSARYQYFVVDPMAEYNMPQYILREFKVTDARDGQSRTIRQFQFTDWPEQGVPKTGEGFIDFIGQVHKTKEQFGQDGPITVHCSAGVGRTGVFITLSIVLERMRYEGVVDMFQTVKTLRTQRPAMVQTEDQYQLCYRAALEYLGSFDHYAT
Yop, sequence (P15273 whole entry): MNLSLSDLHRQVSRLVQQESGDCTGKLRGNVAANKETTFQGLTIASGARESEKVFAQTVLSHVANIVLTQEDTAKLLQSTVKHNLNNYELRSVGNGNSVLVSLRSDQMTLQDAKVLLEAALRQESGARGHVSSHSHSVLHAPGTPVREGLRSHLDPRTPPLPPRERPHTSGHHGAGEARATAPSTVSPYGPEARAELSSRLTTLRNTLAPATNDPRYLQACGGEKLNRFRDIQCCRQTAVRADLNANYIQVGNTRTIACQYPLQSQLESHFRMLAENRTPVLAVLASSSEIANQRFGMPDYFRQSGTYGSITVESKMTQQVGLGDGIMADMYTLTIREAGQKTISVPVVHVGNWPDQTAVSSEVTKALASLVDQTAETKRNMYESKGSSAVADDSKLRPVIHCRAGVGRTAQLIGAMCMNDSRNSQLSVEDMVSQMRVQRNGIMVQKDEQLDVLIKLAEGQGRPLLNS

Row | SMILES | IC50 (PTP1B; [1]) [µM] | IC50 (Prl-3) [µM] | IC50 (Cdc25C) [µM] | further results
1 | O=C1NC(=S)S/C1=C\c1cc(Br)ccc1OCCn1c2ccccc2c2ccccc21 [Compound 141, 5-[5-bromo-2-(2-carbazol-9-yl-ethoxy)-benzylidene]-2-thioxo-thiazolidin-4-one] | 47 | 1.6 |  | IC50 (Cdc25A): > 20 µM; IC50 (Cdc25B): 2.7 µM
2 | O=C1NC(=S)S/C1=C\c1cc2ccccc2cc1OCc1ccccc1 [Compound 2, 5-(3-benzyloxy-naphthalen-2-ylmethylene)-2-thioxo-thiazolidin-4-one] | > 20 |  | > 20 | IC50 (PP1): > 20 µM
3 | O=C1NC(=S)S/C1=C\c1cc(Br)ccc1OCCN1c2ccccc2Cc2ccccc21 [Compound 142, 5-2-[2-(9H-acridin-10-yl)-ethoxy]-5-bromo-benzylidene-2-thioxo-thiazolidin-4-one] | 13 | 3.6 | > 20 | IC50 (Cdc25B): 4.4 µM
4 | CN(CCOc1ccc(Br)cc1/C=C1\SC(=S)NC1=O)C(=O)OC(C)(C)C [Compound 157, 2-[4-bromo-2-(4-oxo-2-thioxo-thiazolidin-5-ylidenemethyl)-phenoxy]-ethyl-methyl-carbamic acid t-butyl ester] | > 20 | 6.2 |  | IC50 (LAR): > 20 µM; IC50 (Yop): > 20 µM
5 | CCN(CC)c1ccc(/C=C2\SC(=S)NC2=O)c(OCc2ccccc2)c1 [Compound 32, 5-(2-benzyloxy-4-diethylamino-benzylidene)-2-thioxo-thiazolidin-4-one] | > 20 | 1.34 | > 20 | IC50 (LAR): > 20 µM; IC50 (VHR): > 20 µM
6 | O=C1NC(=S)S/C1=C\c1cc(Br)ccc1OCc1ccccc1 [Compound 1, 5-(2-benzyloxy-5-bromobenzylidene)-2-thioxo-thiazolidin-4-one] |  |  |  | IC50 (PTP1B): > 20 µM

More lines, main results first:

Row | IC50 (PTP1B; [1]) [µM] | IC50 (Prl-3) [µM] | IC50 (Cdc25C) [µM] | SMILES | further results
7 | 10 |  |  | O=C1NC(=S)S/C1=C\c1cc(Br)ccc1OCCc1ccccc1 [Compound 4, 5-(5-bromo-2-phenethyloxy-benzylidene)-2-thioxo-thiazolidin-4-one] | IC50 (PP1): > 20 µM; IC50 (pp2A): > 20 µM
8 | 2.1 |  |  | O=C1NC(=S)S/C1=C\c1cc(Br)ccc1OCc1ccc(-c2ccccc2)cc1 [Compound 18, 5-[2-(biphenyl-ylmethoxy)-5-bromo-benzylidene]-2-thioxo-thiazolidin-4-one] | IC50 (CD45): > 20 µM
9 | 5 |  | > 20 | O=C1NC(=S)S/C1=C\c1cc(Br)ccc1OCc1cccc(C(F)(F)F)c1 [Compound 19, 5-[5-bromo-2-(3-trifluoromethyl-benzyloxy)-benzylidene]-2-thioxo-thiazolidin-4-one] | IC50 (CD45): > 20 µM; IC50 (VHR): > 20 µM
